Legend:
Neuraminidase = Neuraminidase (Influenza A virus, UniProt B4URF0); test: Inhibition of Influenza A H1N1 virus neuraminidase after 1 hr by spectrofluorimetry using 2-(4-meythylumbelliferyl)-alpha-D-acetylneuramic acid as substrate
[1] = biological target: Neuraminidase (Influenza A virus) (UniProt B4URF0); test: Inhibition of Influenza A H1N1 virus neuraminidase at 8 uM after 1 hr by spectrofluorimetry using 2-(4-meythylumbelliferyl)-alpha-D-acetylneuramic acid as substrate
[2] = biological target: Neuraminidase (Influenza A virus) (UniProt B4URF0); test: Inhibition of Influenza A H1N1 virus neuraminidase at 200 uM after 1 hr by spectrofluorimetry using 2-(4-meythylumbelliferyl)-alpha-D-acetylneuramic acid as substrate
[3] = Cytotoxicity against human L02 cells after 48 hrs by MTT assay; assay type: cell-based; conditions: L02, 48 h
[4] = biological target: Neuraminidase (Influenza A virus) (UniProt B4URF0); test: Inhibition of Influenza A H1N1 virus neuraminidase at 1.6 uM after 1 hr by spectrofluorimetry using 2-(4-meythylumbelliferyl)-alpha-D-acetylneuramic acid as substrate
[5] = biological target: Neuraminidase (Influenza A virus) (UniProt B4URF0); test: Inhibition of Influenza A H1N1 virus neuraminidase at 40 uM after 1 hr by spectrofluorimetry using 2-(4-meythylumbelliferyl)-alpha-D-acetylneuramic acid as substrate
[6] = biological target: Neuraminidase (Influenza A virus) (UniProt B4URF0); test: Inhibition of Influenza A H1N1 virus neuraminidase at 0.16 nM after 1 hr by spectrofluorimetry using 2-(4-meythylumbelliferyl)-alpha-D-acetylneuramic acid as substrate
[7] = biological target: Neuraminidase (Influenza A virus) (UniProt B4URF0); test: Inhibition of Influenza A H1N1 virus neuraminidase at 4 nM after 1 hr by spectrofluorimetry using 2-(4-meythylumbelliferyl)-alpha-D-acetylneuramic acid as substrate
[8] = biological target: Neuraminidase (Influenza A virus) (UniProt B4URF0); test: Inhibition of Influenza A H1N1 virus neuraminidase at 20 nM after 1 hr by spectrofluorimetry using 2-(4-meythylumbelliferyl)-alpha-D-acetylneuramic acid as substrate
[9] = biological target: Neuraminidase (Influenza A virus) (UniProt B4URF0); test: Inhibition of Influenza A H1N1 virus neuraminidase at 100 nM after 1 hr by spectrofluorimetry using 2-(4-meythylumbelliferyl)-alpha-D-acetylneuramic acid as substrate
[10] = biological target: Neuraminidase (Influenza A virus) (UniProt B4URF0); test: Inhibition of Influenza A H1N1 virus neuraminidase at 0.8 nM after 1 hr by spectrofluorimetry using 2-(4-meythylumbelliferyl)-alpha-D-acetylneuramic acid as substrate

Neuraminidase (Influenza A virus), sequence (B4URF0 as listed by the source): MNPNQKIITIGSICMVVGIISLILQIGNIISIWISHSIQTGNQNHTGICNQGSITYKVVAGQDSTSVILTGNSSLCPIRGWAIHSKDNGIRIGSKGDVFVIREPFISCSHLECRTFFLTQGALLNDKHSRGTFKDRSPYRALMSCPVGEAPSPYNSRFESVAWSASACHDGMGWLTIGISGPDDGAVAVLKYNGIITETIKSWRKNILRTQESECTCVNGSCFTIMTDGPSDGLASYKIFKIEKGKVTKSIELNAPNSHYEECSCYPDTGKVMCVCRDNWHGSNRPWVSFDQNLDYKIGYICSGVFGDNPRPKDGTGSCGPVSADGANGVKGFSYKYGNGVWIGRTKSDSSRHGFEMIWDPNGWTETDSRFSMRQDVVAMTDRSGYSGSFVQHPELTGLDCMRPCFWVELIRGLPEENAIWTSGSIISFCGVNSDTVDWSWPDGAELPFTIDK
Neuraminidase, sequence (B4URF0 whole entry): as the sequence (B4URF0 as listed by the source) above

## CCOC(=O)C1C(=O)NC(NC(C)=O)=NC1c1ccc(Br)cc1 (centres undefined)
Neuraminidase
  IC50: 71.3 µM

## CCOC(=O)C1C(=O)NC(NC(C)=O)=NC1C(C)C (centres undefined)
Neuraminidase
  IC50: > 200 µM

## CCOC(=O)C1C(=O)NC(N)=NC1c1ccc(F)cc1 (centres undefined)
Neuraminidase
  IC50: 145 µM

## CCOC(=O)C1C(=O)NC(NC(C)=O)=NC1c1ccccc1F (centres undefined)
Neuraminidase
  IC50: 46.5 µM

## CCOC(=O)C1C(=O)NC(NC(C)=O)=NC1c1ccc(F)cc1 (centres undefined)
Neuraminidase
  IC50: 96.5 µM

## CCOC(=O)C1C(=O)NC(NC(C)=O)=NC1c1ccc(Br)cc1F (centres undefined)
Neuraminidase
  IC50: 29.7 µM
[1]
  inhibition: 24%
[2]
  inhibition: 86%
[3]
  IC50: > 10000 µM
[4]
  inhibition: 7%
[5]
  inhibition: 52%

## CCOC(=O)C1C(=O)NC(N)=NC1c1ccc(Br)cc1F (centres undefined)
Neuraminidase
  IC50: 121 µM

## CCOC(=O)C1C(=O)NC(N)=NC1c1ccccc1Cl (centres undefined)
Neuraminidase
  IC50: 86.9 µM

## CCOC(=O)C1C(=O)NC(N)=NC1C(C)C (centres undefined)
Neuraminidase
  IC50: > 200 µM

## CCOC(=O)C1C(=O)NC(NC(C)=O)=NC1c1ccccc1Cl (centres undefined)
Neuraminidase
  IC50: 36.7 µM

## CCOC(=O)C1C(=O)NC(N)=NC1c1ccccc1 (centres undefined)
Neuraminidase
  IC50: 129 µM

## CCOC(=O)C1C(=O)NC(NC(=O)C(F)(F)F)=NC1c1ccc(Br)cc1 (centres undefined)
Neuraminidase
  IC50: 69.8 µM

## CCOC(=O)C1C(=O)NC(N)=NC1c1ccc([N+](=O)[O-])cc1 (centres undefined)
Neuraminidase
  IC50: 189 µM

## CCOC(=O)C1C(=O)NC(N)=NC1c1ccc(OC)c(OC)c1 (centres undefined)
Neuraminidase
  IC50: > 200 µM

## CCOC(=O)C1C(=O)NC(N)=NC1c1ccccc1[N+](=O)[O-] (centres undefined)
Neuraminidase
  IC50: 75.7 µM

## CCOC(=O)C1C(=O)NC(NC(C)=O)=NC1c1ccc(OC)cc1 (centres undefined)
Neuraminidase
  IC50: 166 µM

## CCOC(=O)C1C(=O)NC(NC(C)=O)=NC1c1ccc(Cl)cc1Cl (centres undefined)
Neuraminidase
  IC50: 28.5 µM
[1]
  inhibition: 38%
[2]
  inhibition: 94%
[3]
  IC50: > 10000 µM
[4]
  inhibition: 8%
[5]
  inhibition: 61%

## CCOC(=O)C1C(=O)NC(N)=NC1c1ccc(Br)cc1 (centres undefined)
Neuraminidase
  IC50: 125 µM

## CCOC(=O)C1=C[C@@H](OC(CC)CC)[C@H](NC(C)=O)[C@@H](N)C1
[6]
  inhibition: 17%
[7]
  inhibition: 84%
[8]
  inhibition: 97%
[9]
  inhibition: 99%
[10]
  inhibition: 51%

## CCOC(=O)C1C(=O)NC(NC(C)=O)=NC1c1ccccc1[N+](=O)[O-] (centres undefined)
Neuraminidase
  IC50: 17.6 µM
[1]
  inhibition: 25%
[2]
  inhibition: 82%
[3]
  IC50: > 10000 µM
[4]
  inhibition: 8%
[5]
  inhibition: 53%

## CCOC(=O)C1C(=O)NC(NC(C)=O)=NC1c1ccc(N(C)C)cc1 (centres undefined)
Neuraminidase
  IC50: 139 µM

## CCOC(=O)C1C(=O)NC(N)=NC1c1ccc(N(C)C)cc1 (centres undefined)
Neuraminidase
  IC50: > 200 µM

## CCOC(=O)C1C(=O)NC(NC(C)=O)=NC1c1ccc(C)cc1 (centres undefined)
Neuraminidase
  IC50: 165 µM

## CCOC(=O)C1C(=O)NC(N)=NC1c1ccc(C)cc1 (centres undefined)
Neuraminidase
  IC50: > 200 µM

## CCOC(=O)C1C(=O)NC(N)=NC1c1ccc(Cl)cc1 (centres undefined)
Neuraminidase
  IC50: 110 µM

## CCOC(=O)C1C(=O)NC(NC(C)=O)=NC1c1ccco1 (centres undefined)
Neuraminidase
  IC50: > 200 µM

## CCOC(=O)C1C(=O)NC(NC(C)=O)=NC1c1ccc([N+](=O)[O-])cc1 (centres undefined)
Neuraminidase
  IC50: 145 µM

## CCOC(=O)C1C(=O)NC(NC(C)=O)=NC1c1ccccc1 (centres undefined)
Neuraminidase
  IC50: 57.5 µM

## CCOC(=O)C1C(=O)NC(N)=NC1c1ccco1 (centres undefined)
Neuraminidase
  IC50: > 200 µM

## CCOC(=O)C1C(=O)NC(N)=NC1c1ccc(OC)cc1 (centres undefined)
Neuraminidase
  IC50: > 200 µM

## CCOC(=O)C1C(=O)NC(NC(C)=O)=NC1c1ccc(OC)c(OC)c1 (centres undefined)
Neuraminidase
  IC50: > 200 µM

## CCOC(=O)C1C(=O)NC(NC(=O)CC)=NC1c1ccc(Br)cc1 (centres undefined)
Neuraminidase
  IC50: 106 µM

## CCOC(=O)C1C(=O)NC(N)=NC1c1ccccc1F (centres undefined)
Neuraminidase
  IC50: 89 µM

## CCOC(=O)C1C(=O)NC(NC(C)=O)=NC1c1ccc(Cl)cc1 (centres undefined)
Neuraminidase
  IC50: 89.6 µM

## CCOC(=O)C1C(=O)NC(N)=NC1c1ccc(Cl)cc1Cl (centres undefined)
Neuraminidase
  IC50: 120 µM

From ChEMBL document CHEMBL3286106, “Design and synthesis of 6-oxo-1,4,5,6-tetrahydropyrimidine-5-carboxylate derivatives as neuraminidase inhibitors” (Eur J Med Chem, 2014)
